Data taken from patent publication US20250257058A1, “COMPOSITIONS AND METHODS FOR INHIBITING CARP-1 BINDING TO NEMO” (The United States Government as represented by the …, priority 2022, published 2025).
Entries after “also recorded” stand apart in the source; their conditions may differ. Read-outs that look alike come from different tables or passages of the source.

Experiments:
[1] = test system: MDA-MB-231 cells; assay: MTT cytotoxicity assay in MDA-MB-231 cells; type: cell-based; settings: for cytotoxicity at 5 µM: Homo sapiens; for Inhibition of viabilities as single agent compared with SNI-1: 24 h or 48 h
Procedure: Here, SNI-1 analogs were synthesized by incorporating combinations of substitutions on Rings A and C (FIG. 8). The efficacy of these compounds was analyzed in two different cell lines: MDA-MB-468 and MDA-MB-231. […] The duration of treatment time was 24 h for […] and 24 h and 48 h for MDA-MB-231 cells. These cells are a more aggressive form of TNBC cells. It expresses both epidermal growth factor (EGF) and transforming growth factor-alpha (TGF alpha) receptors.

[2] = test system: MDA-MB-468 cells; assay: MTT cytotoxicity assay in MDA-MB-468 cells; type: cell-based; settings: for Cell viability inhibition in combination with cisplatin compared with SNI-1: MDA-MB-468, 5 μM compound + 20 μM cisplatin; for Cell viability inhibition (%) (Single agent) MDA-MB-468: MTT, SNI analogs 5 μM, doxorubicin 5 μM, cisplatin 20 μM; for Cell viability inhibition as single agent compared with SNI-1: MDA-MB-468, single agent; for Cytotoxicity in combination with doxorubicin compared with SNI-1: MDA-MB-468, 5 μM compound + 5 μM doxorubicin
Procedure: (§1) The cell lines were cultured in Dulbecco's Modified Eagle's Medium and Roswell Park Memorial Institute (RPMI) as per ATCC recommendation. Media was supplemented with 10% FBS, 2 mM L-glutamine, 100 U/ml penicillin, and 100 mg/ml streptomycin and incubated at 37° C. in a 5% CO2 air humidified atmosphere.
(§2) For the in vitro cytotoxicity studies, cells were seeded in 96-well plates with approximately 5000-8000 cells per well, depending upon the cell's exponential growth.
(§3) For cytotoxic response, cells were analyzed using the MTT reagent dissolved in PBS (1 mg/ml) at pH 7.4. […] Cells were then incubated again for 2-4 hours at 37° C., after which time the MTT reagent was added and the cells were incubated an additional 2 hours. Following this, the media was supplanted by DMSO, and the plates were put on a shaker for 15 min. The absorbance was measured at 570 nm using a high-performance multi-mode plate reader (Synergy 2, BioTek). The percentage of surviving cells was calculated by comparing the treated cells' absorbance and legitimate controls cells. The same procedure was followed for all the cell lines and later calculate the percentage of viable cells independently.

[3] = test system: HCC-1937 cells; assay: MTT cytotoxicity assay in HCC-1937 cells (BRCA-1 mutation); settings: 24 h
Procedure: as §1, §2, §3
(§4) Each histogram's columns indicate the percent of live/viable cells relative to their DMSO-treated controls.

[4] = test system: HCC-1937 cells; settings: human, 24 h, 5 μM
Procedure: as §1, §2, §3, §4

[5] = test system: MDA-MB-231 cells; settings: MDA-MB-231, 4T1 and resistant TNBC cells; 5 μM SNI-1 + 20 μM cisplatin; cited from earlier work
[6] = test system: 4T1 TNBC; settings: cited from earlier work
[7] = target: T1, CARP-1 and NEMO binding (Homo sapiens, UniProt Q8IX12); settings: biochemical mechanism; cited from earlier work
T1 sequence (Q8IX12 1-1150): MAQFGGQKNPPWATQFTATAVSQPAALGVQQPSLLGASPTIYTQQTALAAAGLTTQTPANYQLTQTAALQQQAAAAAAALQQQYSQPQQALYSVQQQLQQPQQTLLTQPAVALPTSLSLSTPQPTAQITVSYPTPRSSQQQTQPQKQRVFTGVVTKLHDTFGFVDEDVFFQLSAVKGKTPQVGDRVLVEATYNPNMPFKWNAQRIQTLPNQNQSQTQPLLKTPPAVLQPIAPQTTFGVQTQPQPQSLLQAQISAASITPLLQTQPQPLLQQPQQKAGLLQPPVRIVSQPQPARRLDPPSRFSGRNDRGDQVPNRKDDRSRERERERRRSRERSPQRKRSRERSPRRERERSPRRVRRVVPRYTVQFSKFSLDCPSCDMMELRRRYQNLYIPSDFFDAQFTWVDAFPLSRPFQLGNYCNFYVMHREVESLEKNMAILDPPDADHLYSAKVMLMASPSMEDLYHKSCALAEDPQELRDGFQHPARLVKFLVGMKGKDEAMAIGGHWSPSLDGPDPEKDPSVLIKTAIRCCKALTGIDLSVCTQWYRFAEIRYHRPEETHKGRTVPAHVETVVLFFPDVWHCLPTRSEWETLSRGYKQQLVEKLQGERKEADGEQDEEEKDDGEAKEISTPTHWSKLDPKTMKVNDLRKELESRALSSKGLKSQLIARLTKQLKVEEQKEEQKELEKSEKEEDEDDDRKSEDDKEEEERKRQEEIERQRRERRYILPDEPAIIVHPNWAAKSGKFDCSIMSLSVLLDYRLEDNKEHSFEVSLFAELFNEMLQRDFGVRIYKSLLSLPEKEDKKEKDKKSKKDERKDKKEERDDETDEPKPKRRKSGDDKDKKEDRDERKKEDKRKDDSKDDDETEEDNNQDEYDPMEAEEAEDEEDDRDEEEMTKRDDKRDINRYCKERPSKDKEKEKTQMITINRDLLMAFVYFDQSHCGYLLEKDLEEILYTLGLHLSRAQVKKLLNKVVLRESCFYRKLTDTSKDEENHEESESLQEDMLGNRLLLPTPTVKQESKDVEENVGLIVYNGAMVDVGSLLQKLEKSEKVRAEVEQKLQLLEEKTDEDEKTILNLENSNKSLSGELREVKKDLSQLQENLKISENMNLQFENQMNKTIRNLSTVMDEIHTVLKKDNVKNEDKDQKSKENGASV

[8] = Homo sapiens, MDA-MB-468, 5 μM compound + 5 μM doxorubicin, 24 h, read-out: Cell viability inhibition (%) with Doxorubicin MDA-MB-468
[9] = MDA-MB-231, 5 μM compound + 5 μM doxorubicin, 24 h, read-out: Cell viability inhibition (%) with Doxorubicin MDA-MB-231
[10] = single agent, SNI analogs 5 μM, doxorubicin 5 μM

| SMILES | Cell viability inhibition in combination with cisplatin compared with SNI-1 ([2]; 24 h) | Cell viability inhibition (%) (Single agent) MDA-MB-468 ([2]; single agent, 24 h) | cytotoxicity at 5 µM [2, 8] [%] | Cell viability inhibition (%) Single-agent HCC-1937 [4] [%] | cytotoxicity at 5 µM [1, 9] [%] | Cell viability inhibition (%) Single-agent MDA-MB-231 [1, 10] [%] | further results |
| --- | --- | --- | --- | --- | --- | --- | --- |
| COc1cccc2c1C(=O)c1c(O)c3c(c(O)c1C2=O)C[C@@](O)(C(=O)CO)C[C@@H]3O[C@H]1C[C@H](N)[C@H](O)[C@H](C)O1 [Doxorubicin, reference compound] |  |  |  |  |  |  | cytotoxicity at 5 µM ([1]; MDA-MB-231, single agent, SNI analogs 5 μM, doxorubicin 5 μM, read-out: Cell viability inhibition (%) Single-agent MDA-MB-231): ~56%; cytotoxicity at 5 µM ([2]; Homo sapiens, MDA-MB-468, 24 h, read-out: Cell viability inhibition (%) (Single agent) MDA-MB-468): ~39% |
| O=C(CSc1nc(-c2ccccc2)cs1)c1ccc(O)c(O)c1 [GL-216] | viability inhibition equal to or better than parent SNI-1 | 10 |  |  |  |  | Cell viability inhibition (%) with Cisplatin HCC-1937 ([3]; 5 μM compound + 20 μM cisplatin): ~46%; Cell viability inhibition (%) Single-agent HCC-1937 ([3]; single agent, SNI analogs 5 μM, cisplatin 20 μM): ~5%; Cell viability inhibition (%) with Doxorubicin MDA-MB-468 ([2]; 5 μM compound + 5 μM doxorubicin, 24 h): ~80% |
| CCOC(=O)c1ccc(-n2nnnc2SCC(=O)c2ccc(O)c(O)c2)cc1 [GL-251, Ethyl 4-(5-((2-(3,4-dihydroxyphenyl)-2-oxoethyl)thio)-1H-tetrazol-1-yl)benzoate] |  |  |  |  |  |  | Cell viability inhibition as single agent compared with SNI-1 ([2]; 5 μM, 24 h): greater cell viability inhibition as a single agent when compared to SNI-1 |
| NS(=O)(=O)c1ccc(-n2nnnc2SCC(=O)c2ccc(O)c(O)c2)cc1 [GL-252, 4-(5-((2-(3,4-dihydroxyphenyl)-2-oxoethyl)thio)-1H-tetrazol-1-yl)benzenesulfonamide] | slightly higher viability inhibition compared with cisplatin and SNI-1 in combination or cisplatin alone; also recorded: viability inhibition equal to or better than parent SNI-1 | 18 | 62 | ~10 |  |  | Cell viability inhibition as single agent compared with SNI-1 ([2]; 5 μM, 24 h): greater cell viability inhibition as a single agent when compared to SNI-1 |
| Cc1ccc(-n2nnnc2SCC(=O)c2ccc3c(c2)OCCO3)cc1 [GL-268, 1-(2,3-dihydrobenzo[b][1,4]dioxin-6-yl)-2-((1-(p-tolyl)-1H-tetrazol-5-yl)thio)ethan-1-one] | viability inhibition equal to or better than parent SNI-1 |  |  |  |  |  |  |
| Cc1ccc(-n2nnnc2SCC(=O)c2ccc(N3CCOCC3)cc2)cc1 [GL-269, 1-(4-morpholinophenyl)-2-((1-(p-tolyl)-1H-tetrazol-5-yl)thio)ethan-1-one] | much better activity in combination with cisplatin; also recorded: viability inhibition equal to or better than parent SNI-1 | 37 | 53 | ~10 |  |  |  |
| COc1ccc(C(=O)CSc2nnnn2-c2ccc(C)cc2)cc1OC [GL-339, 1-(3,4-dimethoxyphenyl)-2-((1-(p-tolyl)-1H-tetrazol-5-yl)thio)ethan-1-one] | greater inhibition in combination with cisplatin |  |  |  |  |  |  |
| O=C(CSc1nnnn1-c1ccc(Cl)cc1Cl)c1ccc(O)c(O)c1 [GL-341, 2-((1-(2,4-dichlorophenyl)-1H-tetrazol-5-yl)thio)-1-(3,4-dihydroxyphenyl)ethan-1-one] | greater inhibitory effect | ~3 | ~49 | ~6 | ~68 | ~21 | Efficacy in combination with cisplatin compared with SNI-1 ([1]; MDA-MB-231, 5 μM compound + 20 μM cisplatin, 48 h): better efficacy when used in combination with cisplatin compared to SNI-1 and cisplatin itself; Inhibition of viabilities as single agent compared with SNI-1 ([1]; MDA-MB-231, single agent, 5 μM): greater inhibition of viabilities than SNI-1; Cytotoxicity in combination with doxorubicin compared with SNI-1 ([2]; 24 h): slightly higher cytotoxicity |
| O=C(CSc1nnnn1-c1ccc([N+](=O)[O-])cc1)c1ccc(O)c(O)c1 [GL-342, 1-(3,4-dihydroxyphenyl)-2-((1-(4-nitrophenyl)-1H-tetrazol-5-yl)thio)ethan-1-one] | greater inhibitory effect | ~22.27 | ~50 | ~21 | ~73 | ~23 | Inhibition of viabilities as single agent compared with SNI-1 ([1]; MDA-MB-231, single agent, 5 μM): more cell viability inhibition; also recorded: greater inhibition of viabilities than SNI-1; Activity in combination with cisplatin compared with SNI-1 ([3]; HCC-1937, 5 μM compound + 20 μM cisplatin): more cell viability inhibition than SNI-1 in combination with cisplatin; Extra loss of cell viability versus parent SNI-1 at 5 µM ([2]; Homo sapiens, MDA-MB-468 (FIG. 9), single agent, 5 μM, 24 h, read-out: Greater loss of cell viability as compared to parent SNI-1): ~10%; Cytotoxicity in combination with doxorubicin compared with SNI-1 ([2]; 24 h): slightly higher cytotoxicity; Cell viability inhibition as single agent compared with SNI-1 ([2]; 5 μM, 24 h): more cell viability inhibition |
| NS(=O)(=O)c1ccc(-n2nnnc2SCC(=O)c2ccc(N3CCOCC3)cc2)cc1 [GL-343, 4-(5-((2-(4-morpholinophenyl)-2-oxoethyl)thio)-1H-tetrazol-1-yl)benzenesulfonamide] |  | ~2 | ~57 | ~1 | ~79 | ~36 | cytotoxicity at 5 µM ([1]; MDA-MB-231, single agent, 5 μM, read-out: Greater inhibition of cell viability when compared with SNI-1 as a single agent): ~30%; Cytotoxicity in combination with doxorubicin compared with SNI-1 ([1]; MDA-MB-231, 5 μM compound + 5 μM doxorubicin, 24 h): much better cytotoxicity when compared with SNI-1; Inhibition of viabilities as single agent compared with SNI-1 ([1]; MDA-MB-231, single agent, 5 μM): greater inhibition of viabilities than SNI-1 |
| Cc1ccc(-n2nnnc2SCC(=O)c2ccc(O)c(O)c2)cc1 [SNI-1, 1-(3,4-dihydroxyphenyl)-2-((1-(p-tolyl)-1H-tetrazol-5-yl)thio)ethan-1-one] |  | 10 | ~75 | 11 | ~77 | ~8 | Loss of viability in combination with cisplatin (previous studies) [5]: significant loss of viability; Response as a single agent in the syngeneic 4T1 TNBC model [6]: failed its response; Binding with CARP-1 and inhibition of its interaction with NEMO [7]: binds with CARP-1 and inhibits its interaction with NEMO |
